Legend:
Homo sapiens [1] = assay: In vivo inhibition of PHD in human assessed as induction of EPO level in serum at 900 mg measured after 18 hrs; format: functional
[2] = Inhibition of PHD (unknown origin); design: species or system Homo sapiens
[3] = Inhibition of PHD in rat H9C2 cells after 24 hrs by ELISA; format: cell-based
Egl nine homolog 1 [4] = biological target: T1, Egl nine homolog 1 (Homo sapiens, UniProt Q9GZT9); assay: Inhibition of FLAG- tagged full length HIF-PHD2 (unknown origin) expressed in baculovirus-infected Sf9 cells using biotin labelled DLDLEMLAPYIPMDDDFQL as substrate preincubated for 30 mins followed by substrate addition measured after 2 hrs by LANCE assay
Homo sapiens [5] = organism: Homo sapiens; assay: Selectivity ratio of IC50 for HIF-PHD2 (unknown origin) to IC50 for HIF-PHD1 (unknown origin)
Egl nine homolog 1 [6] = biological target: T1, Egl nine homolog 1; assay: Inhibition of HIF-PHD2 (unknown origin) by fluorescence polarization assay
Egl nine homolog 1 [7] = biological target: T1, Egl nine homolog 1; assay: Inhibition of human PHD2 expressed in 293FT cells using HIF-1 [alpha] as substrate after 20 mins by fluorescence polarization assay
Prolyl hydroxylase EGLN3 [8] = biological target: T2, Prolyl hydroxylase EGLN3 (Homo sapiens, UniProt Q9H6Z9); assay: Inhibition of His tagged MBP-PHD3 (1 to 230 residues) (unknown origin) expressed in Escherichia coli using Cy5-labelled HIF2alpha as substrate preincubated for 3 mins followed by substrate addition nmeasured after 30 mins by LANCE assay
Homo sapiens [9] = organism: Homo sapiens; assay: Inhibition of PHD (unknown origin) assessed as induction of EPO by cell based assay relative to control
Homo sapiens [10] = organism: Homo sapiens; assay: Selectivity ratio of IC50 for PHD3 (unknown origin) to IC50 for PHD2 (unknown origin)
Homo sapiens [11] = organism: Homo sapiens; assay: Inhibition of PHD in human Hep3B cells assessed as induction of EPO level by cell based assay relative to control
Prolyl hydroxylase EGLN3 [12] = biological target: T2, Prolyl hydroxylase EGLN3; assay: Inhibition of PHD3 (unknown origin)
Prolyl hydroxylase EGLN2 = Prolyl hydroxylase EGLN2 (Homo sapiens, UniProt Q96KS0); assay: Inhibition of PHD1 (unknown origin)
Mus musculus [13] = assay: In vivo inhibition of PHD in B6D2F1 mouse assessed as induction of EPO level at 60 mg/kg measured at 12 hrs post dose relative to control; format: functional
Homo sapiens [14] = assay: In vivo inhibition of PHD in human assessed as induction of EPO level in serum at 10 mg measured after 4 weeks; format: functional
Mus musculus [15] = assay: Cardioprotective activity in C57BL/6 mouse assessed as reduction in area of infract at 30 mg/kg measured at 4 hrs post dose relative to control; format: functional; design: scale not given: the % may be the effect or the level left
Mus musculus [16] = assay: Cardioprotective activity in C57BL/6 mouse assessed as reduction in area of infract at 10 mg/kg measured at 4 hrs post dose relative to control; format: functional; design: scale not given: the % may be the effect or the level left
Mus musculus [17] = assay: Cardioprotective activity in C57BL/6 mouse assessed as reduction in lactate dehydrogenase release to coronary effluent at 30 mg/kg measured at 4 hrs post dose relative to control; format: functional; design: scale not given: the % may be the effect or the level left
Mus musculus [18] = assay: Cardioprotective activity in C57BL/6 mouse assessed as reduction in lactate dehydrogenase release to coronary effluent at 10 mg/kg measured at 4 hrs post dose relative to control; format: functional; design: scale not given: the % may be the effect or the level left
Mus musculus [19] = assay: Cardioprotective activity in C57BL/6 mouse assessed as induction in VEGF mRNA levels at 60 mg/kg, po measured at 2 hrs post dose by qRT-PCR relative to control; format: functional
[20] = Inhibition of PHD (unknown origin) by FRET assay; design: species or system Homo sapiens
[21] = Inhibition of PHD in human A549 cells by luciferase reporter gene assay; format: cell-based
Egl nine homolog 1 [22] = biological target: T1, Egl nine homolog 1; assay: Inhibition of N-terminal truncated PHD2 (unknown origin) using biotin labelled DLDLEMLAPYIPMDDDFQL as substrate by AlphaScreen assay
[23] = Oral bioavailability in Wistar rat; format: ADME, organism-based; settings: in vivo
[24] = Oral bioavailability in dog; format: ADME, organism-based, Canis lupus familiaris; settings: in vivo
[25] = Oral bioavailability in monkey; format: ADME, organism-based, Macaca mulatta; settings: rhesus monkey, in vivo
Rattus norvegicus [26] = assay: In vivo inhibition of PHD in Wistar rat assessed as increase in packed cell volume at 1.25 mg/kg, po measured after 26 days relative to control; format: functional; design: scale not given: the % may be the effect or the level left
Rattus norvegicus [27] = assay: In vivo inhibition of PHD in Wistar rat assessed as increase in packed cell volume at 5 mg/kg, po measured after 26 days relative to control; format: functional; design: scale not given: the % may be the effect or the level left
Homo sapiens [28] = organism: Homo sapiens; assay: Antianemic activity in human assessed as increase in hemoglobin level; format: functional
[29] = Half life in human at 1 to 2 mg/kg, po administered as two or three times weekly; format: ADME, organism-based; settings: in vivo
Homo sapiens [30] = assay: In vivo inhibition of PHD in human assessed as induction of EPO level in serum at 1 mg/kg, po administered as twice weekly measured at 4 to 10 hrs post dose; format: functional

T2 sequence (Q9H6Z9 whole entry, the tested form may be a part): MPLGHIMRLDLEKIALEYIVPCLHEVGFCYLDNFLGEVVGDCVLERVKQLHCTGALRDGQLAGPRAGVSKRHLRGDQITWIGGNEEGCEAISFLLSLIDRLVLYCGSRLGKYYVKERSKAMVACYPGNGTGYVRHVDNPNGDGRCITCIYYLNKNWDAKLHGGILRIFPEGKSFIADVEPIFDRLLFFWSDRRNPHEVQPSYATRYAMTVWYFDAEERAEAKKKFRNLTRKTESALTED
T1 sequence (Q9GZT9 whole entry): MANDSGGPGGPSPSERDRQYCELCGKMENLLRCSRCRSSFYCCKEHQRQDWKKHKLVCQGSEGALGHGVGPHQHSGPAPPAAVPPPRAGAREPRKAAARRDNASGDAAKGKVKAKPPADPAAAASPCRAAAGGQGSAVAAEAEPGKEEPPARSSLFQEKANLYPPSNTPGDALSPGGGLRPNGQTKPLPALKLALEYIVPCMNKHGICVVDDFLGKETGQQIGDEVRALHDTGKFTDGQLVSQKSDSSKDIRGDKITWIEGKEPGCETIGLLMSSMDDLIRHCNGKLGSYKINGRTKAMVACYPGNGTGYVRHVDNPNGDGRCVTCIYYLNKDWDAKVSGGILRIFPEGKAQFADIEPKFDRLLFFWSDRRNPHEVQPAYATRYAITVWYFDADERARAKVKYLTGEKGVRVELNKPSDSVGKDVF
Chain of Prolyl hydroxylase EGLN2 (Q96KS0 whole entry): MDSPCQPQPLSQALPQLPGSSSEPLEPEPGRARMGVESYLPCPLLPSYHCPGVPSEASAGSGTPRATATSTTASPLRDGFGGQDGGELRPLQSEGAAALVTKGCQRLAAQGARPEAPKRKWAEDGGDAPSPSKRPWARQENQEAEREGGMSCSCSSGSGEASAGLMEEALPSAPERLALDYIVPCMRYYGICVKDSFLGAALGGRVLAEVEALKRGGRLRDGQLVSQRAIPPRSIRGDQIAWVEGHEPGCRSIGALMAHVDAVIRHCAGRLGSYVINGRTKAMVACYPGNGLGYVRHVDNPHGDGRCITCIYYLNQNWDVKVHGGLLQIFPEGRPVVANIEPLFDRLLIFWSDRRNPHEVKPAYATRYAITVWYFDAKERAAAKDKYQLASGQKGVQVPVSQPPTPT

Compound `O=C(O)CNC(=O)c1ncc(-c2cccc(Cl)c2)cc1O` has an Activity (Homo sapiens [1]) of 32.4 mU/ml.
Compound `COCC1(CNC(=O)c2ccc(-n3ncc(-c4ccnc(OC)c4)c3O)nc2)CCCC1` has a pIC50 [2] of 8.4 and a pEC50 [3] of 6.45.
`O=C(Cc1ccc(-c2ccccc2)cc1)Nc1cnc(-n2cccn2)nc1O` showed an IC50 (Egl nine homolog 1 [4]) of 0.0007 µM.
With `COc1ccc(Oc2ccc3c(O)c(C(=O)NC(C)(C)CC(=O)O)nc(C#N)c3c2)cc1` the Ratio IC50 (Homo sapiens [5]) was 40.
Compound `O=C(O)CNC(=O)c1ncc(-c2cccc(F)c2)cc1O` has an IC50 (Egl nine homolog 1 [6]) of 13.7 µM.
`O=C(NCc1ccc2c(c1)CCO2)c1ccc(-c2ncn[nH]2)nc1` showed an IC50 (Egl nine homolog 1 [7]) of 0.061 µM.
`COc1ccc(-n2c(=O)[nH]c3cc(C(=O)NCc4ccc(Cl)cc4)sc3c2=O)nc1OC` showed an IC50 (Prolyl hydroxylase EGLN3 [8]) of 0.001 to 0.1 µM.
`O=C(O)c1cnn(-c2nc(O)c3c(cnn3C(c3ccc(Cl)cc3)c3ccc(Cl)cc3)n2)c1` showed a fold change (FC) (Homo sapiens [9]) of 40 and a Ratio IC50 (Homo sapiens [10]) of 130.
Work on `COc1ccc(-n2c(=S)[nH]c3cc(C(=O)NCc4ccc(Cl)cc4)sc3c2=O)nc1OC` yielded an IC50 (Prolyl hydroxylase EGLN3 [8]) of 0.001 to 0.1 µM.
With `CC(=O)Nc1c[nH]n(-c2ccc(C(=O)NCc3cccc(-c4ccccc4)c3)cc2)c1=O` the fold change (FC) (Homo sapiens [11]) was 40.
For `O=C(O)CCNC(=O)c1ncc(C(=O)NC(c2ccccc2)c2ccccc2)c(O)n1`, the IC50 (Egl nine homolog 1 [4]) was < 0.02 µM.
For `O=C(O)CNC(=O)c1c(O)n(C2CCCCC2)c(=O)n(C2CCCCC2)c1=O`, the IC50 (Prolyl hydroxylase EGLN3 [12]) was 0.0055 µM, the IC50 (Prolyl hydroxylase EGLN2) was 0.0035 µM and the “fold change (FC)” value (Mus musculus [13]) was 11.2. It also gave an Activity (Homo sapiens [14]) of 500 mIU/ml.
Work on `CCN1CCN(C(=O)c2ccc(-n3ncc(-c4ccc(C#N)cc4C)c3O)nc2)CC1` yielded a pIC50 [2] of 8, a pEC50 [3] of 6.25 and an Activity (Mus musculus [15]) of 59%. For the same compound, the Activity (Mus musculus [16]) was 50%, the Activity (Mus musculus [17]) was 56% and the Activity (Mus musculus [18]) was 51%. The “fold change (FC)” value (Mus musculus [19]) was 2.
With `COc1ccc(C(NC(=O)c2cnc(-c3cccnn3)nc2O)c2ccc([PH](=O)O)cc2)cc1` (stereo not given) the IC50 (Egl nine homolog 1 [4]) was < 0.01 µM.
With `O=c1c(-c2cccnc2)c[nH]n1-c1ccccn1` the IC50 [20] was 0.43 µM and the EC50 [21] was 4.9 µM.
Compound `O=C(O)CCC(=O)NNC(=O)c1cc2ccccc2cn1` has an IC50 (Egl nine homolog 1 [22]) of 18.4 µM.
In the case of `O=c1c(-n2ccnn2)c[nH]n1-c1cc(N2CCOCC2)ncn1` [MOLIDUSTAT], the bioavailability [23] is reported as 34%, the bioavailability [24] is reported as 71% and the bioavailability [25] is reported as 61%. It also gave an Activity (Rattus norvegicus [26]) of 3% and an Activity (Rattus norvegicus [27]) of 17%.
With `Cc1nc(C(=O)NCC(=O)O)c(O)c2ccc(Oc3ccccc3)cc12` [ROXADUSTAT] the Activity (Homo sapiens [28]) was “>=1 g/dl”, the half-life [29] was 12 h and the Activity (Homo sapiens [30]) was 115 mU/ml.
With `CC(C)(C)NC(=O)c1ccc(-n2[nH]cc(-c3cccnc3)c2=O)nc1` the IC50 [20] was 0.91 µM.
For `CC(CC(=O)O)NC(=O)c1nc(C#N)c2cc(Oc3ccccc3)ccc2c1O` (stereo not given), the Ratio IC50 (Homo sapiens [5]) was 40.
Work on `N#Cc1nc(C(=O)NCCC(=O)O)c(O)c2ccc(Oc3ccccc3)cc12` yielded a Ratio IC50 (Homo sapiens [5]) of 5.
Work on `O=C(O)CNC(=O)c1ncc(C#CCOc2ccc(Cl)cc2)cc1O` [DDO-3055] yielded an IC50 (Egl nine homolog 1 [6]) of 13.7 µM.

From ChEMBL document CHEMBL4145565, “Prolyl Hydroxylase Inhibitors: A Breakthrough in the Therapy of Anemia Associated with Chronic Diseases” (J Med Chem, 2018)
